In patent US7989467B2, “Use of indole-derived compounds for the preparation of a medicament that can be used to treat diseases related to the splicing process” (Centre National de la Recherche Scientifique (CNRS), priority 2003, dated 2011):

Columns and labels:
[1] = system: M3S1 pre-messenger; assay: In vitro splicing of M3S1 pre-messenger RNA (dependent on ESE recognized by SR ASF/SF2 protein); format: biochemical, human; conditions: for M3S1 splicing inhibition: 10 μM, FIG. 2; for effect on M3S1 splicing: concentration not given
Experimental: The compounds presented in Tables 1 and 2 below were tested in a concentration range of 1 μM, 10 μM and 100 μM, and were selected initially on the basis of their capacity to inhibit, in vitro, the splicing of two types of model pre-mRNAs.
The second type of M3S1 pre-messenger is derived from the human […] gene (Labourier, E. et al. (1999), Antagonism between RSF1 and SR proteins for both splice-site recognition in vitro and Drosophila development. Genes Dev. 13, 740-753) and its splicing is strictly dependent on an auxiliary ESE sequence recognized specifically by the SR ASF/SF2 protein. Conditions for the transcription, splicing and analysis of this pre-messenger's products are identical to those used for the MINX pre-messenger.

[2] = system: M3S1 transcript splicing complexes; assay: In vitro splicing-complex formation on M3S1 transcript; format: biochemical, human; conditions: 50 μM; 30 minutes of incubation; FIG. 3
Source text: The activity of the products has also been tested in splicing-complex formation reactions in vitro (FIG. 3) as described in Pilch B. et al. (Specific inhibition of serine- and arginine-rich splicing factors, phosphorylation, spliceosome assembly, and splicing by the antitumor drug NB-506. Cancer Res. 2001. 61, 6876-6884).
M3S1 transcript splicing reactions in the presence of various compounds according to the invention performed under the same conditions as those described for FIG. 1 are stopped after 30 minutes of incubation by the addition of heparin and glycerol at a final concentration of 1 mg/ml and 15%, respectively.

[3] = system: M3S1-PDH pre-messenger RNA; assay: Splicing of M3S1-PDH pre-messenger RNA (pyruvate dehydrogenase E1α subunit, mutated intron 7); format: biochemical, human; conditions: for M3S1-PDH splicing: FIG. 4B
Source text: In this substrate the sequences corresponding to exon 7-intron 7-exon 8 of the gene coding for the pyruvate dehydrogenase E1α subunit (PDH E1α) are inserted downstream from the M3S1 sequence (M3S1-PDH, see FIG. 4A). Intron 7 of this transcript contains a point mutation which creates a high affinity SR hSC35 protein binding site. This mutation, which causes the loss of PDH E1α expression in patients suffering from Leigh syndrome (an encephalopathy in children), leads to the appearance of a cryptic site 46 nucleotides downstream from the authentic 5′ splicing site (FIG. 4A). This substrate, likely to give rise to two products, one with and one without the 46 nucleotides of PDH intron 7, is ideal for determining the specificity of the compounds with respect to the various ESE sequences present within the same transcript.
Compound C7 is thus an excellent inhibitor of defective splicing that is dependent on hSC35 ESE, but not on authentic splicing. This compound can thus be envisaged for treating patients suffering from this encephalopathy.

[4] = system: GFP-ESE transgene; assay: ESE-dependent splicing of GFP-ESE transgene mRNA in HeLa cells (RT-PCR); format: cell-based, human; conditions: 1 μM per FIG. 5 legend
Source text: In order to test the efficiency of indole derivatives ex vivo, […] HeLa cell lines were established stably expressing a transgene corresponding to GFP whose sequence was interrupted by an ESE sequence flanked by two identical introns of the human […] gene described in Example 1 (see FIG. 5A).
To detect the messenger RNAs arising from the splicing of this gene, the RT-PCR technique was used with primers in the GFP sequence on each side of the ESE and the PCR products were analyzed on agarose gel.
In almost all the lines established, a single fragment of 250 base pairs (bp) was amplified by PCR (FIG. 5A, lanes 2 and 3) and it corresponds to an RNA messenger which included the ESE between the two GFP sequences.

[5] = molecular target: T1, SRp55 (Homo sapiens, UniProt Q13247); assay: In vitro splicing results, Table 3: SRp55; format: biochemical; conditions: summary of Table 3
T1 sequence (Q13247 1-344): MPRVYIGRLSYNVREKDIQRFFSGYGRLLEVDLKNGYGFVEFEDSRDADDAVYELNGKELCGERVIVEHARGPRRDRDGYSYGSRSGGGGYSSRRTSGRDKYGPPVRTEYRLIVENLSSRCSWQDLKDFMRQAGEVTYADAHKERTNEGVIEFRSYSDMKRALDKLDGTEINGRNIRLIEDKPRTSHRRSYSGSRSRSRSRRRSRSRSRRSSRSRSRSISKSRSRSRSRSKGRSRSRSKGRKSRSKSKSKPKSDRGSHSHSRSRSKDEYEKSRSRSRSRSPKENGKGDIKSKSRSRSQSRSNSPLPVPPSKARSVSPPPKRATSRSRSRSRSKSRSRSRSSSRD

[6] = system: HIV; assay: Inhibition of HIV multiplication in PMA-stimulated U1 cells (RT-PCR of viral transcripts); format: cell-based; conditions: 2.5 μM; 24 h; U1 cells treated with 50 nM PMA; FIG. 6
Source text: To this end, human […] cell line U1, which is chronically infected by HIV (Folks et al., 1988. Characterization of a promonocyte clone chronically infected with HIV and inducible by 13-phorbol-12-myristate acetate. J. Immunol., 140: 1117-1122) and which produces large quantities of virus after stimulation by PMA (phorbol myristate acetate), was used. As a result, this cell line constitutes an excellent model to mimic the transition between the latency phase and the viral production phase observed in patients infected by HIV.
The results of this experiment are presented in FIG. 6 in which U1 cells (5×10^5) were treated with 50 nM of PMA in the absence (FIG. 6, lane 1) or in the presence of 2.5 μM of compounds C47, C97, C58, C57, C92, C91, C90, C83, C73, C34, C51, C45, C13, C10, C44, C6, C7, C41, C50, C32, C2, C1, C29, C35 and C99 (FIG. 6, lanes 3-27, respectively). After 24 h of treatment, the virus's transcripts were amplified by RT-PCR using specific VIH, BSS and SJ4.7A primers (Jacquenet et al., 2001, A second exon splicing silencer within human immunodeficiency virus type 1 tat exon 2 represses splicing of Tat mRNA and binds protein hnRNP. H. J. Biol. Chem. 276: 40464-75) and a radioactive tracer (α-32P) CTP.

For `Cc1c2ccnc(Cl)c2cc2c3cn(C)ccc-3nc12` [C3, 10-chloro-2,6-dimethyl-2H-pyrido[3′,4′:4,5]pyrrolo[2,3-g]isoquinoline], which M3S1 splicing inhibition [1] is on record?
Its M3S1 splicing inhibition is “M3S1 splicing inhibition”.

What about the “inhibition of the formation of splicing complexes A and B on M3S1” value [2] of the same molecule?
Its value is “inhibition of the formation of splicing complexes A and B”.

`CC(=O)Oc1nccc2c(C)c3[nH]c4ccc(O)cc4c3cc12` [C4, 9-hydroxy-5-methyl-6H-pyrido[4,3-b]carbazol-1-yl acetic acid ester] was tested. Which M3S1-PDH splicing [3] did it give?
Its M3S1-PDH splicing is “has no effect”.

And the “effect on M3S1 splicing” value [1]?
Its value is “inactive on M3S1”.

Which “RNA species from normal PDH splicing” value ([3]; FIG. 4B lane 4) does the source give for `COc1ccc2[nH]c3c(C)c4ccncc4c(NCCCN(C)C)c3c2c1` [C7, N′(9-methoxy-5-methyl-6H-pyrido[4,3-b]carbazol-11-yl)-N,N-dimethyl-propane-1,3-diamine] here?
Its value is “has no effect”.

And the “formation of RNA species arising from PDH splicing that include the 46 nucleotides of intron 7 (defective splicing dependent on hSC35 ESE)” value ([3]; FIG. 4B lane 4)?
Its value is “blocks the formation”.

What about the “effect on M3S1 splicing” value [1] of the same molecule?
Its value is “do not modify M3S1 splicing”.

Which M3S1-PDH splicing [3] does the source give for `CCN(CC)CCCNc1nccc2c(C)c3[nH]c4ccc(OC)cc4c3cc12` [C8, N,N-diethyl-N′-(9-methoxy-5-methyl-6H-pyrido[4,3-b]carbazol-1-yl)-propane-1,3-diamine] here?
Its M3S1-PDH splicing is “Inhibition of M3S1-PDH”.

Which results are given for `COc1ccc2[nH]c3c(C)c4ccnc(NCCCN5CCN(CCCN)CC5)c4cc3c2c1` [C14]?
M3S1 splicing inhibition [1]: M3S1 splicing inhibition; splicing profile of the GFP-ESE transgene (RT-PCR fragment without ESE) [4]: revealed a fragment of 194 bp; inhibition of the formation of splicing complexes A and B on M3S1 [2]: inhibition of the formation of splicing complexes A and B

`CCN(CC)CCC(C)Nc1nccc2c(C)c3c(cc12)c1cnccc1n3C` (stereo not shown) [C28, N-3-(5,6-dimethyl-5H-pyrido[3′,4′:4,5]pyrrolo[2,3-g]isoquinolin-10-yl)-N,N-1-diethyl-butane-1,3-diamine] was tested. Which “splicing profile of the GFP-ESE transgene (RT-PCR fragment without ESE)” value [4] did it give?
The value was “revealed a fragment of 194 bp”.

With `CCN(CC)CCNc1nccc2c(C)c3c(cc12)c1cc(OC)ccc1n3C` [C50, N,N-diethyl-N′-(9-methoxy-5,6-dimethyl-6H-pyrido[4,3-b]carbazol-1-yl)-ethane-1,2-diamine] as the molecule, how does the “inhibit the activity of the SRp55 protein specifically” value [5] read?
The value was “inhibit the activity of the SRp55 protein specifically”.

And the “inhibition of HIV multiplication (amplification of viral transcripts)” value [6]?
Its value is “excellent inhibitors of HIV multiplication”.

How did the “inhibit the activity of the SRp55 protein specifically” value [5] turn out when `CNCCCNc1ncc(C)c2[nH]c3ccc4cc(OC)ccc4c3c12` [C57, N-(3-methoxy-8-methyl-7H-benzo[e]pyrido[4,3-b]indol-11-yl)-N′-methyl-propane-1,3-diamine] was run?
The value was “inhibit the activity of the SRp55 protein specifically”.

What about the “inhibition of HIV multiplication (amplification of viral transcripts)” value [6] of the same molecule?
The value was “excellent inhibitors of HIV multiplication”.
